{
  "source": "paper PMC5049785",
  "about": "“Characterization of Novel Antimalarial Compound ACT-451840: Preclinical Assessment of Activity and Dose–Efficacy Modeling” (PLoS Medicine, 2016)",
  "key": {"[1]": {"assay": "General oral toxicity study up to 4 wk, rats", "format": "in vivo"}, "P. falciparum": {"test_system": "P. falciparum", "assay": "Prediction of human efficacious exposure", "description": "In this PK/PD approach, the robust endpoint of animal survival and cure were chosen for clinical relevance. […] The alternative approach used to assess efficacious concentrations in vivo calculated the minimum inhibitory concentration and estimated a minimum parasiticidal concentration from modeling of the exposure–efficacy in the P. falciparum murine model."}, "[2]": {"test_system": "P. falciparum K1 (Thailand)", "assay": "[3H]-hypoxanthine incorporation assay, K1", "format": "cell-based, Plasmodium falciparum", "conditions": "read-out: 50% inhibitory concentration (IC50); K1, resistance CQ, SUL, PYR, CYC; mean ± SD"}, "[3]": {"test_system": "P. falciparum stage V gametocytes / oocysts in Anopheles stephensi", "assay": "Standard membrane feeding assay, indirect mode", "format": "cell-based, Plasmodium falciparum", "conditions": "24 h pre-exposure of gametocytes", "procedure": "ACT-451840 was tested in the standard membrane feeding assay at TropIQ (Nijmegen, The Netherlands) in two modes, as previously described. In the direct mode, the compound was directly added to a bloodmeal containing mature stage V gametocytes that was fed to Anopheles stephensi mosquitoes. […] Seven days after the bloodmeal, the number of oocysts in the midgut was determined by microscopy for both modes. […] Vehicle control (0.1% DMSO) and positive control (10 μM dihydroartemisinin) were included. Twenty mosquitoes were dissected per sample, and oocyst load was analyzed per mosquito."}, "[4]": {"assay": "Effect of formulation and food on oral pharmacokinetics in dogs", "format": "in vivo", "conditions": "for AUC0-∞ geometric mean / Cmax geometric mean: dogs", "procedure": "The fumarate salt of ACT-451840 was administered orally at 10 mg/kg to fasted and fed male dogs (100 mg/dog, n = 4) as a suspension in an aqueous vehicle containing 0.5% (w/w) methylcellulose."}, "[5]": {"test_system": "P. falciparum NF54 strain", "assay": "[3H]-hypoxanthine incorporation assay, NF54", "format": "cell-based, Plasmodium falciparum", "conditions": "mean ± SD", "procedure": "In vitro time-, stage-, and concentration-dependent effects were assessed using pyrimethamine as a stage-specific and slow-acting control, as described elsewhere."}, "[6]": {"test_system": "P. falciparum TM90C2A (Thailand)", "assay": "[3H]-hypoxanthine incorporation assay, TM90C2A", "format": "cell-based, Plasmodium falciparum", "conditions": "read-out: 50% inhibitory concentration (IC50), resistance CQ, PYR, MFQ, CYC, mean ± SD"}, "[7]": {"test_system": "P. falciparum 7G8 (Brazil)", "assay": "[3H]-hypoxanthine incorporation assay, 7G8", "format": "cell-based, Plasmodium falciparum", "conditions": "read-out: 50% inhibitory concentration (IC50); 7G8, resistance CQ, PYR, CYC; mean ± SD"}, "[8]": {"test_system": "V1/S parasites (K13 wild-type)", "assay": "microbe, parasite or virus in culture", "format": "cell-based, P. falciparum", "procedure": "(§1) Parasites were cultured at Columbia University Medical Center (New York, USA) as previously described (1). Cam3.II and V1/S parasites, which had been genetically engineered to express K13 wild-type or K13 C580Y were seeded in a 96-well plate at 0.2% parasitemia and 1% hematocrit (2). […] Parasites were then stained with SYBR Green I (Invitrogen) and MitoTracker Deep Red (ThermoFisher Scientific) for 20 minutes at 37 °C (3). Stained parasites were detected using a BD Accuri 6 Flow Cytometer, and analyzed using FlowJo Software. IC50 values were determined by nonlinear regression using GraphPad Prism 6.0. For statistical analyses, Student’s t-tests were performed, and significance was set at P < 0.05.\n(§2) Values indicate mean ± SEM, shown in nM. Significance determined by Student's t-test against parental lines."}, "V1/S^C580Y parasites": {"test_system": "V1/S^C580Y parasites", "assay": "microbe, parasite or virus in culture", "format": "cell-based, P. falciparum", "procedure": "as §1, §2"}, "[9]": {"test_system": "Cam3.II^rev parasites (K13 wild-type)", "assay": "microbe, parasite or virus in culture", "format": "cell-based, P. falciparum", "procedure": "as §1, §2"}, "Cam3.II^C580Y parasites": {"test_system": "Cam3.II^C580Y parasites", "assay": "microbe, parasite or virus in culture", "format": "cell-based, P. falciparum", "procedure": "as §1, §2"}, "[10]": {"assay": "Effect of formulation and food on oral pharmacokinetics in dogs", "format": "in vivo", "conditions": "for AUC increase versus suspension formulation / Cmax increase versus suspension formulation: fasted dogs; for AUC0-∞ geometric mean / Cmax geometric mean: dogs, 100 mg oral, fasted"}, "[11]": {"assay": "Safety pharmacology in dogs", "format": "in vivo", "conditions": "dogs dosed up to 500 mg/kg"}, "[12]": {"conditions": "in vivo"}, "[13]": {"assay": "Blood concentrations in P. berghei infected mice", "format": "in vivo", "conditions": "1, 4, 24 h after first dose of triple-dose regimen", "procedure": "To assess the PK parameters in infected mice, blood samples were taken at 1, 4, and 24 h after the first dose of a triple-dose regimen in the P. berghei efficacy studies. The employed doses were 15 or 30 mg/kg bis in die (b.i.d.), and 30, 50, 100, 300 mg/kg quaque die (q.d.) (n = 3/timepoint and dose)."}, "[14]": {"conditions": "100 mg oral, aqueous suspension, fasted"}, "[15]": {"conditions": "fumarate salt 100 mg oral, aqueous suspension containing 0.5% methylcellulose, fasted"}, "[16]": {"conditions": "fumarate salt 100 mg oral, aqueous suspension containing 0.5% methylcellulose, fed"}, "[17]": {"conditions": "methylcellulose suspension, higher in fed"}},
  "note": "Read-outs that look alike come from different tables or passages of the source.",
  "data": [
    {"smiles": "CC(=O)N1CCN(c2ccc(CN(C(=O)/C=C/c3ccc(C(C)(C)C)cc3)[C@@H](Cc3ccccc3)C(=O)N3CCN(Cc4ccc(C#N)cc4)CC3)cc2)CC1", "note": "[ACT-451840]", "values": [
      {"measurement": "no-observed-adverse-effect level", "setting": "[1]; oral", "value": 100, "unit": "mg/kg/day"},
      {"measurement": "local gastrointestinal toxicity", "setting": "[1]; oral up to 2,000 mg/kg/day", "value": "no evidence of local gastrointestinal toxicity"},
      {"measurement": "efficacious human total AUC, expressed in mouse blood", "setting": "P. falciparum; 227 x 23", "value": "5,250 ng*h/mL"},
      {"measurement": "predicted total efficacious human plasma AUC", "setting": "P. falciparum; corrected for blood/plasma ratio of 0.6", "value": "8,750 ng*h/mL"},
      {"measurement": "time for which the threshold of […] would be covered", "setting": "P. falciparum; single dose of 500 mg, fed state, healthy subjects", "value": 72, "unit": "h"},
      {"measurement": "IC50", "setting": "[2]", "value": 0.3, "unit": "nM"},
      {"measurement": "IC50", "setting": "[3]; oocysts counted 7 d after bloodmeal, read-out: IC50 oocyst development in the mosquito (oocyst intensity)", "value": 30, "unit": "nM"},
      {"measurement": "IC50", "setting": "[3]; read-out: IC50 prevalence of infection (number of infected mosquitoes)", "value": 104, "unit": "nM"},
      {"measurement": "AUC0-∞ geometric mean", "setting": "[4]; [14]", "value": 120, "unit": "ng·h/mL"},
      {"measurement": "Cmax geometric mean", "setting": "[4]; [14]", "value": 26.2, "unit": "ng/mL"},
      {"measurement": "AUC0-∞ geometric mean", "setting": "[4]; [15]", "value": 304, "unit": "ng·h/mL"},
      {"measurement": "Cmax geometric mean", "setting": "[4]; [15]", "value": 46.2, "unit": "ng/mL"},
      {"measurement": "AUC0-∞ geometric mean", "setting": "[4]; [16]", "value": 1720, "unit": "ng·h/mL"},
      {"measurement": "Cmax geometric mean", "setting": "[4]; [16]", "value": 171, "unit": "ng/mL"},
      {"measurement": "AUC fed dogs versus fasted dogs", "setting": "[4]; [17]", "value": 5.7, "unit": "fold"},
      {"measurement": "Cmax fed dogs versus fasted dogs", "setting": "[4]; [17]", "value": 3.7, "unit": "fold"},
      {"measurement": "IC90", "setting": "[5]; NF54, n ≥ 3", "value": 0.6, "unit": "nM"},
      {"measurement": "IC99", "setting": "[5]; NF54, n ≥ 3", "value": "1.2 ± 0.0", "unit": "nM"},
      {"measurement": "IC50", "setting": "[5]; read-out: 50% inhibitory concentration (IC50), NF54, no resistance, n = 3", "value": 0.4, "unit": "nM"},
      {"measurement": "IC50", "setting": "[6]", "value": "1 ± 0.3", "unit": "nM"},
      {"measurement": "IC50", "setting": "[7]", "value": "0.3 ± 0.1", "unit": "nM"},
      {"measurement": "IC50 fold change", "setting": "[8]; V1/S (parental reference line)", "value": 1.0},
      {"measurement": "IC50", "setting": "[8]; V1/S, 72 h, mean ± SEM, read-out: IC50", "value": "0.21 ± 0.001", "unit": "nM"},
      {"measurement": "IC50 fold change", "setting": "V1/S^C580Y parasites; V1/S^C580Y versus V1/S", "value": 0.9},
      {"measurement": "IC50", "setting": "V1/S^C580Y parasites; V1/S^C580Y, 72 h, mean ± SEM, read-out: IC50", "value": "0.19 ± 0.015", "unit": "nM"},
      {"measurement": "IC50 fold change", "setting": "[9]; Cam3.II^rev (parental reference line)", "value": 1.0},
      {"measurement": "IC50", "setting": "[9]; Cam3.II^rev, 72 h, mean ± SEM, read-out: IC50", "value": "2.1 ± 0.3", "unit": "nM"},
      {"measurement": "IC50 fold change", "setting": "Cam3.II^C580Y parasites; Cam3.II^C580Y versus Cam3.II^rev", "value": 1.1},
      {"measurement": "IC50", "setting": "Cam3.II^C580Y parasites; Cam3.II^C580Y, 72 h, mean ± SEM, read-out: IC50", "value": "2.3 ± 0.6", "unit": "nM"},
      {"measurement": "AUC increase versus suspension formulation", "setting": "[10]; Phosal 53 MCT solution", "value": 5.0, "unit": "fold"},
      {"measurement": "Cmax increase versus suspension formulation", "setting": "[10]; Phosal 53 MCT solution", "value": 4.3, "unit": "fold"},
      {"measurement": "AUC increase versus suspension formulation", "setting": "[10]; corn oil solution", "value": 7.8, "unit": "fold"},
      {"measurement": "Cmax increase versus suspension formulation", "setting": "[10]; corn oil solution", "value": 8.1, "unit": "fold"},
      {"measurement": "AUC0-∞ geometric mean", "setting": "[10]; Phosal 53 MCT solution", "value": 597, "unit": "ng·h/mL"},
      {"measurement": "Cmax geometric mean", "setting": "[10]; Phosal 53 MCT solution", "value": 112, "unit": "ng/mL"},
      {"measurement": "AUC0-∞ geometric mean", "setting": "[10]; corn oil solution", "value": 935, "unit": "ng·h/mL"},
      {"measurement": "Cmax geometric mean", "setting": "[10]; corn oil solution", "value": 213, "unit": "ng/mL"},
      {"measurement": "effect on cardiovascular parameters", "setting": "[11]", "value": "no effect"},
      {"measurement": "genotoxicity, micronucleus test", "setting": "[12]", "value": "not genotoxic"},
      {"measurement": "blood concentration in infected mice compared to healthy mice", "setting": "[13]", "value": "No significant difference"}
    ]}
  ]
}
